In US20030095958A1, “Inhibitors of bace” (priority 2001, published 2003) one finds Ki data, which are given here for 34 compounds.

Molecules are shown by their SMILES.

Chain of BACE (P56817 46-501): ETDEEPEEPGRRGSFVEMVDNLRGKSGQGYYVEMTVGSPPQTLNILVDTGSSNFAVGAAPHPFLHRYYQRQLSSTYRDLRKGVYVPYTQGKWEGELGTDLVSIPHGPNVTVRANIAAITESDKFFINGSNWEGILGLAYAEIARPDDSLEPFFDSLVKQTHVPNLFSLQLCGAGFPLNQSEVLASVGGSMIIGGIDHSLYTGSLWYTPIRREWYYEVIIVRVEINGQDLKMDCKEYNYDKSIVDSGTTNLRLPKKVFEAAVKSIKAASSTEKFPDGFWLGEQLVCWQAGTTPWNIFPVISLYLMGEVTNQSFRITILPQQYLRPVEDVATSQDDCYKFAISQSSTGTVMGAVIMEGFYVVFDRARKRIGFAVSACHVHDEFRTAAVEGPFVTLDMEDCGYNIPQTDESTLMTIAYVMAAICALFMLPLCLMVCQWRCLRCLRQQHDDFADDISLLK

In the assay the target is BACE (Homo sapiens, UniProt P56817). Kind of assay: Ki Determination for the Inhibition of BACE (FS-1 peptide fluorescence cleavage assay). Type of assay: biochemical. The conditions noted are these: apparent Ki; 50 nM BACE, 10 μM FS-1 substrate, 0.1M sodium acetate pH 4.5. The procedure:
Compounds were tested against BACE activity using the following modifications of the method described in J. Ermolieff et al. (2000) Biochemistry 39(51):16263.
All compound evaluations were performed in 0.1M sodium acetate (buffer), pH, 4.5, 10 μM substrate (FS-1 peptide as described in the reference above; this is commercially available), varying concentrations of the test compound or control (DMSO to yeild 2% vol/vol), and 50 nM BACE. The assay volume is 100 μL.
Two microliters of the test compound dissolved in DMSO are added to each well in a 96-well microtiter plate. Seventy eight microliters of BACE are mixed with buffer and added to each well then incubated at room temperature for 15 minutes. A stock solution of 50 μM FS-1 substrate was prepared by addition of an aliquot of FS-1 substrate which was dissolved in DMSO to the buffer and mixed well. The reaction is initiated by addition of 20 μL of the FS-1 mix to the remaining, preincubated assay components. The cleavage reaction of substrate to product is measured using a Molecular Devices fluorescence plate reader with the excitation and emission filter pairs of 355 nm and 495 nm, respectively. Apparent Ki values are determined by fitting the data to the integrated equation for competitive tight binding inhibition.
In the case of `O=S(=O)(Nc1cc(C(F)(F)F)ccc1N1CCNCC1)c1ccc2ccccc2c1` [Compound 136, Naphthalene-2-sulfonic acid (2-piperazin-1-yl-5-trifluoromethyl-phenyl)-amide], the Ki was above 30 µM.

Regarding `O=S(=O)(Nc1cc(C(F)(F)F)ccc1N1CCNCC1)c1ccc(-c2ccccc2)cc1` [Compound 137, Biphenyl-4-sulfonic acid (2-piperazin-1-yl-5-trifluoromethyl-phenyl)-amide], the Ki fell in the range of 3 to 30 µM.

Regarding `Cc1cc(N2CCNCC2)c(NC(=O)c2cccc3ccccc23)cc1-c1ccc(Cl)c(Cl)c1` [Compound 138, Naphthalene-1-carboxylic acid (3′,4′-dichloro-6-methyl-4-piperazin-1-yl-biphenyl-3-yl)-amide], the Ki is below 3 µM.

On to `O=C(Nc1cc(Oc2cccc(Cl)c2)ccc1N1CCNCC1)c1cccc2ccccc12` [Compound 139, Naphthalene-1-carboxylic acid [5-(3-chloro-phenoxy)-2-piperazin-1-yl-phenyl]-amide], for which the Ki was 3 to 30 µM.

For the compound `Cc1ccccc1Oc1ccc(N2CCNCC2)c(NC(=O)c2cccc3ccccc23)c1` [Compound 140, Naphthalene-1-carboxylic acid (2-piperazin-1-yl-5-o-tolyloxy-phenyl)-amide], the Ki is 3 to 30 µM.

Regarding `Cc1cccc(Oc2ccc(N3CCNCC3)c(NC(=O)c3cccc4ccccc34)c2)c1` [Compound 141, Naphthalene-1-carboxylic acid (2-piperazin-1-yl-5-m-tolyloxy-phenyl)-amide], the Ki fell in the range of 3 to 30 µM.

In the case of `Cc1ccc(Oc2ccc(N3CCNCC3)c(NC(=O)c3cccc4ccccc34)c2)cc1` [Compound 142, Naphthalene-1-carboxylic acid (2-piperazin-1-yl-5-p-tolyloxy-phenyl)-amide], the Ki lay within 3 to 30 µM.

Turning to `COc1ccc2c(C(=O)Nc3cc(C(F)(F)F)ccc3N3CCNCC3)cccc2c1` [Compound 143, 6-Methoxy-naphthalene-1-carboxylic acid (2-piperazin-1-yl-5-trifluoromethyl-phenyl)-amide], the Ki was above 30 µM.

Consider `CC(C)NS(=O)(=O)c1ccc(-c2ccc(N3CCNCC3)c(NC(=O)c3cccc4ccccc34)c2)cc1` [Compound 144, Naphthalene-1-carboxylic acid (4′-isopropylsulfamoyl-4-piperazin-1-yl-biphenyl-3-yl)-amide], for which the Ki fell in the range of 3 to 30 µM.

With `CCN(CC)S(=O)(=O)c1ccc(-c2ccc(N3CCNCC3)c(NC(=O)c3cccc4ccccc34)c2)cc1` [Compound 145, Naphthalene-1-carboxylic acid (4′-diethylsulfamoyl-4-piperazin-1-yl-biphenyl-3-yl)-amide], the Ki is 3 to 30 µM.

Turning to `O=C(Nc1cc(-c2ccc(S(=O)(=O)NCc3ccccc3)cc2)ccc1N1CCNCC1)c1cccc2ccccc12` [Compound 146, Naphthalene-1-carboxylic acid (4′-benzylsulfamoyl-4-piperazin-1-yl-biphenyl-3-yl)-amide], the Ki is below 3 µM.

For `O=C(Nc1cc(-c2ccc(S(=O)(=O)NC3CCCCC3)cc2)ccc1N1CCNCC1)c1cccc2ccccc12` [Compound 147, Naphthalene-1-carboxylic acid (4′-cyclohexylsulfamoyl-4-piperazin-1-yl-biphenyl-3-yl)-amide], the Ki was below 3 µM.

With `O=C(Nc1cc(C(F)(F)F)cc(Cl)c1N1CCNCC1)c1cccc2ccccc12` [Compound 148, Naphthalene-1-carboxylic acid (3-chloro-2-piperazin-1-yl-5-trifluoromethyl-phenyl)-amide], the Ki is above 30 µM.

Regarding `O=C(Nc1cc(C(F)(F)F)ccc1N1CCNCC1)c1cccc2cccnc12` [Compound 149, Quinoline-8-carboxylic acid (2-piperazin-1-yl-5-trifluoromethyl-phenyl)-amide], the Ki is 3 to 30 µM.

For `O=C(Nc1cc(C(F)(F)F)ccc1N1CCNCC1)Oc1cccc2ccccc12` [Compound 150, (2-Piperazin-1-yl-5-trifluoromethyl-phenyl)-carbamic acid naphthalen-1-yl ester], the Ki was 3 to 30 µM.

On to `O=C(Nc1cc(C(F)(F)F)ccc1N1CCNCC1)Oc1ccc2ccccc2c1` [Compound 151, (2-Piperazin-1-yl-5-trifluoromethyl-phenyl)-carbamic acid naphthalen-2-yl ester], for which the Ki lay in the range of 3 to 30 µM.

For `O=C(Nc1cc(-c2ccoc2)ccc1N1CCNCC1)c1cccc2ccccc12` [Compound 152, Naphthalene-1-carboxylic acid (5-furan-3-yl-2-piperazin-1-yl-phenyl)-amide], the Ki is above 30 µM.

Take `O=C(Nc1cc(-c2ccsc2)ccc1N1CCNCC1)c1cccc2ccccc12` [Compound 153, Naphthalene-1-carboxylic acid (2-piperazin-1-yl-5-thiophen-3-yl-phenyl)-amide]: the Ki lay within 3 to 30 µM.

On to `Cc1cc(N2CCNCC2)c(NC(=O)c2cccc3ccccc23)cc1-c1ccoc1` [Compound 154, Naphthalene-1-carboxylic acid (5-furan-3-yl-4-methyl-2-piperazin-1-yl-phenyl)-amide], for which the Ki is above 30 µM.

`Cc1cc(N2CCNCC2)c(NC(=O)c2cccc3ccccc23)cc1-c1ccsc1` [Compound 155, Naphthalene-1-carboxylic acid (4-methyl-2-piperazin-1-yl-5-thiophen-3-yl-phenyl)-amide]: the Ki was in the range of 3 to 30 µM.

For the compound `O=C(Nc1ccc(OCc2ccccc2)cc1N1CCNCC1)c1cccc2ccccc12` [Compound 156, Naphthalene-1-carboxylic acid (4-benzyloxy-2-piperazin-1-yl-phenyl)-amide], the Ki was above 30 µM.

As for `O=C(Nc1cc(F)c(Br)cc1N1CCNCC1)c1cccc2ccccc12` [Compound 157, Naphthalene-1-carboxylic acid (4-bromo-5-fluoro-2-piperazin-1-yl-phenyl)-amide], the Ki is above 30 µM.

For the compound `O=C(Nc1cc(F)c(-c2ccccc2)cc1N1CCNCC1)c1cccc2ccccc12` [Compound 158, Naphthalene-1-carboxylic acid (2-fluoro-5-piperazin-1-yl-biphenyl-4-yl)-amide], the Ki lay within 3 to 30 µM.

As for `O=C(Nc1cc(F)c(-c2ccc(C(F)(F)F)cc2)cc1N1CCNCC1)c1cccc2ccccc12` [Compound 159, Naphthalene-1-carboxylic acid (2-fluoro-5-piperazin-1-yl-4′-trifluoromethyl-biphenyl-4-yl)-amide], the Ki is below 3 µM.

On to `O=C(Nc1cc(F)c(-c2ccoc2)cc1N1CCNCC1)c1cccc2ccccc12` [Compound 160, Naphthalene-1-carboxylic acid (5-fluoro-4-furan-3-yl-2-piperazin-1-yl-phenyl)-amide], for which the Ki is 3 to 30 µM.

On to `O=C(Nc1cc(-c2ccc(C(F)(F)F)cc2F)ccc1N1CCNCC1)c1cccc2ccccc12` [Compound 161, Naphthalene-1-carboxylic acid (2′-fluoro-4-piperazin-1-yl-4′-trifluoromethyl-biphenyl-3-yl)-amide], for which the Ki was in the range of 3 to 30 µM.

As to `O=C(Nc1cc(-c2cc(F)c(C(F)(F)F)cc2F)ccc1N1CCNCC1)c1cccc2ccccc12` [Compound 162, Naphthalene-1-carboxylic acid (2′,5′-difluoro-4-piperazin-1-yl-4′-trifluoromethyl-biphenyl-3-yl)-amide], the Ki was below 3 µM.

For the compound `O=C(Nc1cc(-c2ccc(S(=O)(=O)NCc3ccccc3)c(F)c2)ccc1N1CCNCC1)c1cccc2ccccc12` [Compound 163, Naphthalene-1-carboxylic acid (4′-benzylsulfamoyl-3′-fluoro-4-piperazin-1-yl-biphenyl-3-yl)-amide], the Ki was below 3 µM.

Turning to `O=C(Nc1cc(-c2cc(F)c(S(=O)(=O)NCc3ccccc3)cc2F)ccc1N1CCNCC1)c1cccc2ccccc12` [Compound 164, Naphthalene-1-carboxylic acid (4′-benzylsulfamoyl-2′,5′-difluoro-4-piperazin-1-yl-biphenyl-3-yl)-amide], the Ki was 3 to 30 µM.

Turning to `c1ccc(-c2ccc(N3CCNCC3)c(NCc3ccc4ccccc4c3)c2)cc1` [Compound 165, Naphthalen-2-ylmethyl-(4-piperazin-1-yl-biphenyl-3-yl)-amine], the Ki was below 3 µM.

Turning to `FC(F)(F)c1ccc(-c2ccc(N3CCNCC3)c(NCc3ccc4ccccc4c3)c2)cc1` [Compound 166, Naphthalen-2-ylmethyl-(4-piperazin-1-yl-4′-trifluoromethyl-biphenyl-3-yl)-amine], the Ki was below 3 µM.

Turning to `O=C(Nc1cc(C(F)(F)F)c(Cl)cc1N1CCNCC1)c1cccc2ccccc12` [Compound 167, Naphthalene-1-carboxylic acid (4-chloro-2-piperazin-1-yl-5-trifluoromethyl-phenyl)-amide], the Ki is above 30 µM.

With `O=C(Nc1cc(C(F)(F)F)c(-c2ccc(Cl)c(Cl)c2)cc1N1CCNCC1)c1cccc2ccccc12` [Compound 168, Naphthalene-1-carboxylic acid (3′,4′-dichloro-5-piperazin-1-yl-2-trifluoromethyl-biphenyl-4-yl)-amide], the Ki is below 3 µM.

For `O=C(Nc1cc(C(F)(F)F)c(-c2cc(Cl)ccc2Cl)cc1N1CCNCC1)c1cccc2ccccc12` [Compound 169, Naphthalene-1-carboxylic acid (2′,5′-dichloro-5-piperazin-1-yl-2-trifluoromethyl-biphenyl-4-yl)-amide], the Ki was below 3 µM.
